For 8 compounds, IC50 and Activity results are on record in ChEMBL document CHEMBL1146428, “Effects of flavonoids isolated from scutellariae radix on fibrinolytic system induced by trypsin in human umbilical vein endothelial cells” (J Nat Prod, 1997).

The term IC50 denotes the concentration at which inhibition is half-maximal. Read a high IC50 as weaker potency.

Experiment [1] concerns the target T1, Trypsin (Homo sapiens, UniProt P07477+P07478+P35030). Nature of the experiment: Inhibition of trypsin-induced elevation in PAI1 production in HUVEC by ELISA. Format: cell-based. On the technique in general: In an ELISA, binding on a coated surface is turned into a signal by an enzyme label.
Experiment [2] concerns the target T1, Trypsin. Put plainly: Inhibition of trypsin-induced reduction in tPA production in HUVEC by ELISA. Format: cell-based.
The nature of experiment [3]: Inhibition of trypsin by protease assay system.

The source made the active and inactive calls. The calls are words filed in the database; no cut-off is given here.

As to `COc1c(O[C@@H]2O[C@H](C(=O)O)[C@@H](O)[C@H](O)[C@H]2O)cc(O)c2c(=O)cc(-c3ccccc3)oc12`, the IC50 in experiment [1] is more than 1000 µM. For the same compound, the result in experiment [2] was inactive.

In the case of `O=C1C[C@@H](c2c(O)cccc2O)Oc2cc(O)cc(O)c21`, the half-inhibitory concentration (IC50) in experiment [1] is more than 1000 µM. For the same compound, the result in experiment [2] was inactive.

`COc1c(O)ccc(O)c1-c1cc(=O)c2c(O)cc(O)c(OC)c2o1` gave an IC50 in experiment [1] of 88 µM. Also, the outcome in experiment [2] was inactive.

Consider `O=c1cc(-c2ccccc2)oc2cc(O)c(O)c(O)c12` [BAICALEIN], for which the IC50 in experiment [3] amounted to 0.5 µM; in experiment [1], 3.7 µM. In addition, the Activity result in experiment [1] and in experiment [2] was “Dose-dependent effect” in each case.

`O=C(O)[C@H]1O[C@@H](Oc2cc3oc(-c4ccccc4)cc(=O)c3c(O)c2O)[C@H](O)[C@@H](O)[C@@H]1O` [BAICALIN] yielded a half-inhibitory concentration (IC50) in experiment [1] of more than 1000 µM. For the same compound, the result in experiment [2] was inactive.

Turning to `COc1c(O)cc2oc(-c3ccccc3)cc(=O)c2c1O` [OROXYLIN A], the IC50 in experiment [1] was 61 µM. For the same compound, the outcome in experiment [2] was inactive.

Compound `COc1cccc(O)c1-c1cc(=O)c2c(O)c(OC)c(OC)c(OC)c2o1` [SKULLCAPFLAVONE II] displayed an IC50 in experiment [1] of 110 µM. The outcome in experiment [2] was inactive.

`COc1c(O)cc(O)c2c(=O)cc(-c3ccccc3)oc12` [WOGONIN] had a concentration for half-maximal inhibition (IC50) in experiment [1] of 105 µM. The result in experiment [2] was inactive.
